Here are results for eleven molecules from patent publication US6727263B2, “Indole and 2,3-dihydroindole derivatives, their preparation and use” (H. Lundbeck A/S, priority 1997, dated 2004).

Structures can show the parent of a compound that is named as a salt. Where two headings read alike, the source gives them in different places.

In one data set the target is T1, human 5-HT1A receptors (Homo sapiens, UniProt P08908).
T1 construct: expressed in transfected cells; host or cells: HeLa cells (HA7), used as cell homogenate
T1 sequence (P08908 1-422): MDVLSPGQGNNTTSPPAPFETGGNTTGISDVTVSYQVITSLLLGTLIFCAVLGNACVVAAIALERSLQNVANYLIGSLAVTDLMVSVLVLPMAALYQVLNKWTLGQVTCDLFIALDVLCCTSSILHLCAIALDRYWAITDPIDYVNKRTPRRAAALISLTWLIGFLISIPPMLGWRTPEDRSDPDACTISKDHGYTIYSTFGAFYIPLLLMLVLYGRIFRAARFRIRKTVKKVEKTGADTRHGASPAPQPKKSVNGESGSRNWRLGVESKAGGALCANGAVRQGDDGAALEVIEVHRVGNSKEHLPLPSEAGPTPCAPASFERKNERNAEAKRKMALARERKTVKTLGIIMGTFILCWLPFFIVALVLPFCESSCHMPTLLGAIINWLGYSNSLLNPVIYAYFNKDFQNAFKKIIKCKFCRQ
Briefly: Inhibition of 3H-5-CT binding to human 5-HT1A receptors. How it is done:
Inhibition of ^3H-5-CT Binding to Human 5-HT1A Receptors
Human 5-HT1A receptors (40 μg of cell homogenate) were incubated for 15 minutes at 37° C. in 50 mM Tris buffer at pH 7.7 in the presence of ^3H-5-CT. Non-specific binding was determined by including 10 μM of metergoline. The reaction was terminated by rapid filtration through Unifilter GF/B filters on a Tomtec Cell Harvester. Filters were counted in a Packard Top Counter.

The subject of data set [1] is 3H-5-HT uptake into whole rat brain synaptosomes. Briefly: Inhibition of 3H-5-HT uptake into rat brain synaptosomes. The format is biochemical. As to conditions: 3H-5-HT accumulation into whole rat brain synaptosomes, in vitro; read-out: Inhibition of serotonin reuptake IC50. The method, then: Inhibition of ^3H-5-HT Uptake Into Rat Brain Synaptosomes
Using this method the ability of drugs to inhibit the accumulation of ^3H-5-HT into whole rat brain synaptosomes is determined in vitro.

A further data set addresses T2, cloned 5-HT1A receptors (Homo sapiens, UniProt P08908).
T2 construct: expressed in transfected cells; host or cells: HeLa cells (HA7)
T2 sequence (P08908 1-422): T1 sequence (P08908 1-422)
Description: Antagonism of 5-HT induced inhibition of forskolin induced cAMP accumulation. As to conditions: cloned 5-HT1A receptors in transfected HeLa cells (HA7). The class given is cell-based. How it is done: The assay was performed as a modification of the method described by Pauwels, P. J et al, Biochem. Pharmacol. 1993, 45, 375.
A general note: Changes in cAMP serve as a functional read-out for many G protein-coupled receptors.

Setting [2] is: read-out: Inhibition of 3H-5-CT binding IC50, cloned human 5-HT1A receptors expressed in transfected HeLa cells (HA7), cell homogenate, 15 minutes at 37° C., pH 7.7.

`COc1ccc2[nH]cc(CCN3CCN(c4cccc5c4OCCO5)CC3)c2c1` [Compound 1i, 3-[2-[4-(1,4-Benzodioxan-5-yl)piperazin-1-y]ethyl]-5-methoxy-1H-indole hemioxalate]: the IC50 on human 5-HT1A receptors was found to be 6.9 nM; in data set [1], 6.8 nM; on cloned 5-HT1A receptors it was 620 nM.

As to “3-[2-[4-(1,4-Benzodioxan-5-yl)piperazin-1-yl]ethyl]-6-methyl-1H-indole hemifumarate [Compound 1k]”, the 50% inhibitory concentration (IC50) at human 5-HT1A receptors (setting [2]) is 2 nM; in data set [1] it was 18 nM; at cloned 5-HT1A receptors, 580 nM.

Turning to `Clc1ccc2[nH]cc(CCN3CCN(c4cccc5c4OCC5)CC3)c2c1.O=C(O)C(=O)O` [Compound 1n, 5-Chloro-3-[2-[4-(2,3-dihydrobenzofuran-7-yl)piperazin-1-yl]ethyl]-1H-indole oxalate], the melting point was in the range of 134 to 138 °C. For the same molecule, the IC50 at human 5-HT1A receptors amounted to 8.2 nM. For the same molecule, the IC50 in data set [1] worked out at 2.1 nM. On cloned 5-HT1A receptors, this molecule had an IC50 of 1900 nM.

In the case of `Clc1ccc2[nH]cc(CCN3CCN(c4cccc5c4OCCO5)CC3)c2c1` [Compound 1a, 3-[2-[4-(1,4-Benzodioxan-5-yl)Piperazin-1-yl]Ethyl]-5-Chloro-1H-Indole Oxalate], the IC50 on human 5-HT1A receptors came out at 17 nM; in data set [1] it was 5 nM; at cloned 5-HT1A receptors, 2900 nM.

Consider “3-[2-[4-(1,4-Benzodioxan-5-yl)piperazin-1-yl]ethyl]-5-methyl-1H-indole hemifumarate [Compound 1j]”, for which the IC50 at human 5-HT1A receptors (setting [2]) is 14 nM; in data set [1], 3.5 nM; against cloned 5-HT1A receptors it was 980 nM.

As to `CC1(C)CCc2cc(Cl)cc(N3CCN(CCc4c[nH]c5cc(Cl)ccc45)CC3)c2O1.O=C(O)/C=C/C(=O)O` [Compound 3d, 6-Chloro-3-[2-[4-(6-chloro-2,2-dimethyl-3,4-dihydro-2H-1-benzopyran-8-yl)piperazin-1yl]ethyl]-1H-indole fumarate], the melting point fell in the range of 224 to 225 °C. At human 5-HT1A receptors, this molecule registered an IC50 of 21 nM. In addition, the IC50 in data set [1] was determined as 15 nM. The molecule further had an IC50 at cloned 5-HT1A receptors of 2300 nM.

`Clc1ccc2c(CCN3CC=C(c4cccc5c4OCCO5)CC3)c[nH]c2c1.O=C(O)C(=O)O` [Compound 1v, 3-[2-[4-(1,4-Benzodioxan-5-yl)-1,2,3,6-tetrahydropyridin-1-yl]ethyl]-6-chloro-1H-indole oxalate] returned a melting point of 240 to 247 °C. On human 5-HT1A receptors, this molecule had an IC50 of 0.81 nM. Besides, the half-maximal inhibitory concentration (IC50) in data set [1] turned out to be 0.85 nM. Moreover, the half-inhibitory concentration (IC50) against cloned 5-HT1A receptors came out at 3300 nM.

As for `CC1(C)Cc2cccc(C3=CCN(CCc4c[nH]c5cc(Cl)ccc45)CC3)c2O1` [Compound 1g, 6-Chloro-3-[2-[4-(2,2,-dimethyl-2,3,-dihydrohydrobenzofuran-7-yl)-1,2,3,6-tetrahydro-1-pyridyl]ethyl]-1H-indole oxalate], the IC50 on human 5-HT1A receptors came to 2.8 nM; in data set [1] it was 3.8 nM; against cloned 5-HT1A receptors, 1800 nM.

With “3-[2-[4-(1,4-Benzodioxan-5-yl)Piperazin-1-yl]Ethyl]-6-Chloro-1H-Indole Hemifumarate [Compound 3a]”, the half-inhibitory concentration (IC50) at human 5-HT1A receptors (setting [2]) was 1.2 nM; in data set [1] it was 5.3 nM; on cloned 5-HT1A receptors, 500 nM.

As to `c1cc2c(c(N3CCN(CCc4c[nH]c5ccccc45)CC3)c1)OCCO2` [Compound 2a, 3-[2-[4-(1,4-Benzodioxan-5-yl)Piperazin-1-yl]Ethyl]-1H-Indole Hemifumarate], the half-inhibitory concentration (IC50) on human 5-HT1A receptors (setting [2]) is 2.9 nM; in data set [1], 3.5 nM; against cloned 5-HT1A receptors, 160 nM.

Take `CC1(C)Cc2cccc(C3CCN(CCc4c[nH]c5cc(Cl)ccc45)CC3)c2O1` [Compound 1f, 6-Chloro-3-[2-[4-(2,2, -dimethyl-2,3-dihydrobenzofuran-7-yl)piperidin-1-yl]ethyl]-1H-indole oxalate]: the 50% inhibitory concentration (IC50) was determined as 6.1 nM at human 5-HT1A receptors, 5.9 nM in data set [1] and 1800 nM against cloned 5-HT1A receptors.

A word on the IC50: it is the point on the concentration scale where inhibition reaches its midpoint. The melting point is the temperature of the solid-liquid transition.
